Laboratory results as given in patent publication US20110159515A1, “COMPOSITIONS AND METHODS FOR THE RAPID GROWTH AND DETECTION OF MICROORGANISMS” (SOLUS SCIENTIFIC SOLUTIONS LIMITED, priority 2008, published 2011).
Several values for one entry are separate records, joined by “and”; a condition that tells them apart may be missing. Identical values can stand only once. Like-named read-outs stand apart in the source and are kept apart here.

Legend:
L. innocua = assay: Direct binding Salmonella assay (chemiluminescence immunosorbent); conditions: 10^6 L. innocua; detergent level not given
Protocol: (§1) The sample was heated to 100° C. for 5 minutes and allowed to cool. One hundred microlitres of each test sample was added directly to a well of a solid white 96 well high binding microtitre plate (Greiner Bio One) and incubated at 37° C. for 30 minutes. During incubation, the lipid A portion of the LPS binds to the surface of the plate via non-covalent hydrophobic interactions (FIG. 1a (1), FIG. 1b(1)).
(§2) The final concentration of antibody per well was 50 ng. The plate-bound sample (Salmonella LPS/core oligosaccharide) and antibody were incubated in the coated wells for 30 minutes as 37° C. Following incubation, plates were washed three times in wash buffer and pat dried prior to detection (FIG. 1a(2), FIG. 1b(2)).
(§3) When the anti-Salmonella is directly labelled with acridinium ester, plates were placed into a luminometer. 30 μl of trigger solution A and 60 μl of trigger solution B was added to each well of the microtitre plate to initiate light output from conjugated acridinium ester (FIG. 1a(3)). The luminometer settings were as follows:
(§4) When the anti-Salmonella antibody is not labelled, a second binding member, a goat anti-mouse IgG2b conjugate is used. Post column IgG2b was diluted 1:100 in a diluent comprising 3% (w/v) non-fat milk powder and 0.05% (v/v) Tween 20 and 100 ul of this solution was added to each well of the plate (FIG. 1b(3)). Following incubation at 37° C. for 60 minutes the plate was washed four times in wash buffer, dried and read as above (FIG. 1b(4)).
Monoclonal antibody (1:100 dilution) was incubated with either Salmonella or Listeria to determine optimum incubation times:
Monoclonal antibody (1:200 dilution) was incubated with either Salmonella or Listeria to determine optimum incubation times: […]

S. aberdeen = assay: as above; conditions: detergent level not given
Protocol: as §1, with “After 5 hours of culture, a 2 ml aliquot of the sample was removed and SDS was added to a final concentration of 0.5% (w/v). The” for “The”
as §2, §3, §4
The wells of an assay plate are coated with standard concentrations of bacteria for 1 hour at 37° C. These standard concentrations are: 10^6, 10^5, 5×10^4, 2.5×10^4, 10^4 and 5×10^3 and blank wells containing 10^6 E. coli. The fractions to be tested are diluted 1:100 in assay buffer and […] is added to each well and incubated at 37° C. for 20 minutes. The wells are then read on the luminometer, as above.

E. coli = assay: Growth response in tryptic soy broth with additive, A620 turbidity; assay type: cell-based; conditions: for A620: E. coli
Salmonella = assay: as above; assay type: cell-based, Salmonella aberdeen; conditions: for A620: Salmonella
[1] = 10^1 bacteria (species not given)
[2] = 10^2 bacteria (species not given)
[3] = 10^3 bacteria (species not given)
[4] = 10^4 bacteria (species not given)
[5] = 10^5 bacteria (species not given)
[6] = 10^6 bacteria (species not given)
[7] = 5 mg/litre brilliant green, high absorbance values due to absorbance of Brilliant Green
[8] = 7 mg/litre brilliant green, high absorbance values due to absorbance of Brilliant Green
[9] = 10 mg/litre brilliant green, high absorbance values due to absorbance of Brilliant Green
[10] = 2 to 16 g/L, tryptic soy broth, 37° C., 18 hours

TRITON X-100
signal, release and detection of core oligosaccharide (L. innocua): 7076 relative light units | signal, release and detection of core oligosaccharide (S. aberdeen; [1]): 9981 relative light units | signal, release and detection of core oligosaccharide (S. aberdeen; [2]): 10494 relative light units | signal, release and detection of core oligosaccharide (S. aberdeen; [3]): 22570 relative light units | signal, release and detection of core oligosaccharide (S. aberdeen; [4]): 203602 relative light units | signal, release and detection of core oligosaccharide (S. aberdeen; [5]): 867745 relative light units | signal, release and detection of core oligosaccharide (S. aberdeen; [6]): 455886 relative light units

C[C@H](CCC(=O)[O-])[C@H]1CC[C@H]2[C@@H]3[C@H](O)C[C@@H]4C[C@H](O)CC[C@]4(C)[C@H]3C[C@H](O)[C@]12C.[Na+] [SODIUM CHOLATE]
signal, release and detection of core oligosaccharide (L. innocua): 7495 relative light units | signal, release and detection of core oligosaccharide (S. aberdeen; [1]): 8858 relative light units | signal, release and detection of core oligosaccharide (S. aberdeen; [2]): 8921 relative light units | signal, release and detection of core oligosaccharide (S. aberdeen; [3]): 12088 relative light units | signal, release and detection of core oligosaccharide (S. aberdeen; [4]): 67710 relative light units | signal, release and detection of core oligosaccharide (S. aberdeen; [5]): 529553 relative light units | signal, release and detection of core oligosaccharide (S. aberdeen; [6]): 917476 relative light units

CCCCCCCCCCCCCCCC[N+](C)(C)C.[Br-] [CTAB, cetyltrimethyammonium bromide]
signal, release and detection of core oligosaccharide (L. innocua): 7593 relative light units | signal, release and detection of core oligosaccharide (S. aberdeen; [1]): 8901 relative light units | signal, release and detection of core oligosaccharide (S. aberdeen; [2]): 9746 relative light units | signal, release and detection of core oligosaccharide (S. aberdeen; [3]): 21541 relative light units | signal, release and detection of core oligosaccharide (S. aberdeen; [4]): 203215 relative light units | signal, release and detection of core oligosaccharide (S. aberdeen; [5]): 775871 relative light units | signal, release and detection of core oligosaccharide (S. aberdeen; [6]): 866920 relative light units

CCN(CC)c1ccc(C(=C2C=CC(=[N+](CC)CC)C=C2)c2ccccc2)cc1 [brilliant green]
levels at which growth of E. coli is limited (E. coli): ≥ 0.0003 g/L | A620 (E. coli; 0.15 mg/litre brilliant green): 0.102 and 0.118 | A620 (E. coli; 0.3 mg/litre brilliant green): 0.043 and 0.062 | A620 (E. coli; 1 mg/litre brilliant green): 0.037 and 0.035 | A620 (E. coli; 3 mg/litre brilliant green): 0.041 and 0.034 | A620 (E. coli; [7]): 0.250 and 0.230 | A620 (E. coli; [8]): 0.524 and 0.500 | A620 (E. coli; [9]): 0.624 and 0.665 | levels at which growth of Salmonella is limited (Salmonella): ≥ 0.3 mg/L | optimum level for growth of Salmonella with inhibition of competing bacteria (Salmonella; FIG. 4): 0.15 mg/L | A620 (Salmonella; 0.15 mg/litre brilliant green): 0.255 and 0.229 | A620 (Salmonella; 0.3 mg/litre brilliant green): 0.046 and 0.041 | A620 (Salmonella; 1 mg/litre brilliant green): 0.057 and 0.040 | A620 (Salmonella; 3 mg/litre brilliant green): 0.072 and 0.061 | A620 (Salmonella; [7]): 0.282 and 0.256 | A620 (Salmonella; [8]): 0.606 and 0.569 | A620 (Salmonella; [9]): 0.614 and 0.607

CCCCCCCCCCCCCCCC[N+](C)(C)C.[Cl-] [CTAC, cetyltrimethyammoniumchloride]
signal, release and detection of core oligosaccharide (L. innocua): 7892 relative light units | signal, release and detection of core oligosaccharide (S. aberdeen; [1]): 10321 relative light units | signal, release and detection of core oligosaccharide (S. aberdeen; [2]): 12485 relative light units | signal, release and detection of core oligosaccharide (S. aberdeen; [3]): 22758 relative light units | signal, release and detection of core oligosaccharide (S. aberdeen; [4]): 205093 relative light units | signal, release and detection of core oligosaccharide (S. aberdeen; [5]): 792108 relative light units | signal, release and detection of core oligosaccharide (S. aberdeen; [6]): 881712 relative light units

ammonium ferric citrate
optimum level for growth of Shigella (Shigella flexneri; FIG. 5): 0.25 g/L | levels at which growth of E. coli is limited (E. coli): ≥ 0.25 g/L | levels at which growth of Staphylococcus is limited (Staphylococcus aureus): ≥ 0.25 g/L | effect on growth of Salmonella (Salmonella; levels above 0.25 g/l, FIG. 5): unaffected

O=C([O-])CC(O)(CC(=O)[O-])C(=O)[O-].[Na+].[Na+].[Na+] [sodium citrate, tri-sodium citrate]
growth response of Shigella over those of Staphylococcus and E. coli (Shigella flexneri; 15 g/L): significantly increased | effect on growth of Shigella (Shigella flexneri; FIG. 6): enhanced | levels at which growth of E. coli is limited (E. coli): ≥ 5 g/L | levels at which growth of Staphylococcus is limited (Staphylococcus aureus): ≥ 5 g/L

O=S(=O)([O-])SSS(=O)(=O)[O-].[Na+].[Na+] [sodium tetrathionate]
effect on growth of Shigella (Shigella flexneri; [10]): inhibited | levels that inhibit the growth of E. coli (E. coli): > 4 g/L | effect on growth of E. coli (E. coli; [10]): inhibited | A620 (E. coli; 4 g/litre tetrathionate): 0.096 and 0.104 | A620 (E. coli; 8 g/litre tetrathionate): 0.078 and 0.073 | A620 (E. coli; 12 g/litre tetrathionate): 0.053 and 0.048 | A620 (E. coli; 15 g/litre tetrathionate): 0.011 | A620 (E. coli; 20 g/litre tetrathionate): 0.015 and 0.018 | A620 (E. coli; 25 g/litre tetrathionate): 0.023 and 0.022 | A620 (E. coli; 30 g/litre tetrathionate): 0.021 and 0.020 | effect on growth of Staphylococcus (Staphylococcus aureus; [10]): inhibited | levels at which growth of Salmonella is inhibited (Salmonella): above 16 g/L | effect on growth of Salmonella (Salmonella; [10]): un-affected or promoted | effect on the growth of Salmonella (Salmonella; 8 g/litre): clear enhancing effect | A620 (Salmonella; 4 g/litre tetrathionate): 0.187 and 0.179 | A620 (Salmonella; 8 g/litre tetrathionate): 0.818 and 0.848 | A620 (Salmonella; 12 g/litre tetrathionate): 0.226 and 0.270 | A620 (Salmonella; 15 g/litre tetrathionate): 0.167 and 0.186 | A620 (Salmonella; 20 g/litre tetrathionate): 0.150 and 0.139 | A620 (Salmonella; 25 g/litre tetrathionate): 0.086 and 0.099 | A620 (Salmonella; 30 g/litre tetrathionate): 0.059 and 0.073 | levels in a culture media that significantly inhibit the growth of Salmonella spp (Salmonella; summary statement): above 20 g/L
